This passage reports Solubility results from EP3556748A1, “HYDROXYPHENYL-TRIAZINE UV ABSORBERS” (BASF SE, priority 2018, dated 2019).

This data set is described as follows: Solubility testing in cosmetic solvents / emollients (clear solution). As to conditions: 25°C. It counts as physicochemical. As to the method:
The UV absorber mixture is suspended in 1200mg solvent in a glass container (sonication bath, vortex shaker). A magnetic stirring bar is added. The container is closed and stirred over night at room temperature (20-35°C).
Specification: clear solution
The solubility of Tinosorb S was determined as described in SOFW-Journal, 139, 7-2013, page 7-14.

Consider `CCCCC(CC)COc1ccc(-c2nc(-c3ccc(OC)cc3)nc(-c3ccc(OCC(CC)CCCC)cc3O)n2)c(O)c1` (centres unmarked) [Tinosorb S, Bis-Ethylhexyloxyphenol Methoxyphenyl Triazine], for which the Solubility was found to be 10% w/w (Cetiol AB (C12-15 Alkyl Benzoate)); 12% w/w (Cetiol B (Dibutyl Adipate)); 9% w/w (Cetiol CC (Dicaprylyl Carbonate)); 1% w/w (Cetiol Ultimate (Undecane and Tridecane)); 9% w/w (Dub DBS (Dibutyl Sebacate)); 17% w/w (Finsolv EB: Ethylhexyl Benzoate). The Solubility stood at 5% w/w (Myritol 318 (Caprylic/Capric Triglyceride)) and 5% w/w (Myritol 331 (Cocoglycerides)).
